Assay results from patent US20030186997A1, “2,5-Dihydro-pyrazolo[3,4-d]pyrimidin-4-ones with an anticonsulsive action and methods for producing the same” (priority 2000, published 2003).

melting point [°C]	SMILES
174 to 175	O=c1c2cn(Cc3ccccn3)nc2ncn1Cc1c(F)cccc1F [Compound 59, 5-(2,6-difluorobenzyl)-2-pyridin-2-ylmethyl-2,5-dihydropyrazolo[3,4-d]pyrimidin-4-one]
201 to 202	Cc1nc2nn(C)cc2c(=O)n1Cc1c(F)cccc1F [Compound 64, 5-(2,6-difluorobenzyl)-2,6-dimethyl-2,5-dihydropyrazolo[3,4-d]pyrimidin-4-one]
211 to 212	Cn1cc2c(=O)n(Cc3ccc(C(F)(F)F)cc3)cnc2n1 [Compound 22, 5-(4-trifluoromethylbenzyl)-2-methyl-2,5-dihydropyrazolo[3,4-d]pyrimidin-4-one]
163 to 164	CC(C)n1cc2c(=O)n(Cc3ccccn3)cnc2n1 [Compound 46, 5-(2-pyridinylmethyl)-2-isopropyl-2,5-dihydropyrazolo[3,4-d]pyrimidin-4-one]
224 to 226	Cc1ccc(Cn2cnc3nn(C)cc3c2=O)cc1 [Compound 16, 5-(4-methylbenzyl)-2-methyl-2,5-dihydropyrazolo[3,4-d]-pyrimidin-4-one]
182 to 184	Cc1cc(C)c(Cn2cnc3nn(C)cc3c2=O)c(C)c1 [Compound 32, 5-(2,4,6-trimethylbenzyl)-2-methyl-2,5-dihydropyrazolo[3,4-d]pyrimidin-4-one]
209 to 210	Cn1cc2c(=O)n(Cc3ccc(Cl)cc3)cnc2n1 [Compound 27, 5-(4-chlorobenzyl)-2-methyl-2,5-dihydropyrazolo[3,4-d]-pyrimidin-4-one]
114 to 117	Cc1cccc(Cn2cnc3nn(C)cc3c2=O)c1 [Compound 15, 5-(3-methylbenzyl)-2-methyl-2,5-dihydropyrazolo[3,4-d]-pyrimidin-4-one]
188 to 189	COc1ccccc1Cn1cnc2n[nH]cc2c1=O [Compound 7, 5-(2-methoxybenzyl)-2,5-dihydropyrazolo[3,4-d]-pyrimidin-4-one]
156 to 157	CCCCn1cc2c(=O)n(Cc3c(F)cccc3Cl)cnc2n1 [Compound 47, 5-(2-chloro-6-fluorobenzyl)-2-butyl-2,5-dihydropyrazolo[3,4-d]pyrimidin-4-one]
173 to 174	O=c1c2cn(Cc3ccccc3)nc2ncn1Cc1c(F)cccc1F [Compound 56, 5-(2,6-difluorobenzyl)-2-benzyl-2,5-dihydropyrazolo[3,4-d]pyrimidin-4-one]
220 to 221	O=c1c2c[nH]nc2ncn1Cc1ccncc1 [Compound 12, 5-(4-pyridinylmethyl)-2,5-dihydropyrazolo[3,4-d]-pyrimidin-4-one]
207 to 209	CCn1cc2c(=O)n(Cc3c(F)cccc3Cl)cnc2n1 [Compound 35, 5-(2-chloro-6-fluorobenzyl)-2-ethyl-2,5-dihydropyrazolo[3,4-d]pyrimidin-4-one]
205 to 206	Cn1cc2c(=O)n(Cc3ccccc3Cl)cnc2n1 [Compound 18, 5-(2-chlorobenzyl)-2-methyl-2,5-dihydropyrazolo[3,4-d]-pyrimidin-4-one]
176 to 177	O=c1c2cn(Cc3ccccc3)nc2ncn1Cc1c(F)cccc1Cl [Compound 54, 5-(2-chloro-6-fluorobenzyl)-2-benzyl-2,5-dihydropyrazolo[3,4-d]pyrimidin-4-one]
224 to 225	O=c1c2c[nH]nc2ncn1Cc1ccccn1 [Compound 10, 5-(2-pyridinylmethyl)-2,5-dihydropyrazolo[3,4-d]-pyrimidin-4-one]
187 to 190	Cn1cc2c(=O)n(Cc3ccccc3I)cnc2n1 [Compound 29, 5-(2-iodobenzyl)-2-methyl-2,5-dihydropyrazolo[3,4-d]-pyrimidin-4-one]
189 to 191	O=c1c2cn(-c3ccccc3)nc2ncn1Cc1c(F)cccc1F [Compound 52, 5-(2,6-difluorobenzyl)-2-phenyl-2,5-dihydropyrazolo[3,4-d]pyrimidin-4-one]
182 to 184	O=c1c2cn(Cc3ccccc3)nc2ncn1Cc1ccccn1 [Compound 57, 5-(2-pyridinylmethyl)-2-benzyl-2,5-dihydropyrazolo[3,4-d]-pyrimidin-4-one]
156 to 157	CC(C)n1cc2c(=O)n(Cc3c(F)cccc3F)cnc2n1 [Compound 45, 5-(2,6-difluorobenzyl)-2-isopropyl-2,5-dihydropyrazolo[3,4-d]pyrimidin-4-one]
146 to 147	CCCCn1cc2c(=O)n(Cc3ccc(C)cc3)cnc2n1 [Compound 48, 5-(4-methylbenzyl)-2-butyl-2,5-dihydropyrazolo[3,4-d]-pyrimidin-4-one]
157 to 158	CCCn1cc2c(=O)n(Cc3ccc(C)cc3)cnc2n1 [Compound 40, 5-(4-methylbenzyl)-2-propyl-2,5-dihydropyrazolo[3,4-d]-pyrimidin-4-one]
145 to 147	Cc1ccc(Cn2cnc3nn(C(C)C)cc3c2=O)cc1 [Compound 44, 5-(4-methylbenzyl)-2-isopropyl-2,5-dihydropyrazolo[3,4-d]-pyrimidin-4-one]

melting point [°C]	SMILES
151 to 152	CCCCn1cc2c(=O)n(Cc3c(F)cccc3F)cnc2n1 [Compound 49, 5-(2,6-difluorobenzyl)-2-butyl-2,5-dihydropyrazolo[3,4-d]-pyrimidin-4-one]
163 to 165	CCCn1cc2c(=O)n(Cc3c(F)cccc3Cl)cnc2n1 [Compound 39, 5-(2-chloro-6-fluorobenzyl)-2-propyl-2,5-dihydropyrazolo[3,4-d]pyrimidin-4-one]
215 to 217	Cn1cc2c(=O)n(Cc3ccccc3C(F)(F)F)cnc2n1 [Compound 20, 5-(2-trifluoromethylbenzyl)-2-methyl-2,5-dihydropyrazolo[3,4-d]pyrimidin-4-one]
198 to 199	Cn1cc2c(=O)n(Cc3ccccc3C#N)cnc2n1 [Compound 30, 5-(2-cyanobenzyl)-2-methyl-2,5-dihydropyrazolo[3,4-d]-pyrimidin-4-one]
199 to 201	O=c1c2cn(-c3ccccc3)nc2ncn1Cc1ccccn1 [Compound 53, 5-(2-pyridinylmethyl)-2-phenyl-2,5-dihydropyrazolo[3,4-d]-pyrimidin-4-one]
203 to 205	Cn1cc2c(=O)n(Cc3ccccn3)cnc2n1 [Compound 33, 5-(2-pyridinylmethyl)-2-methyl-2,5-dihydropyrazolo[3,4-d]-pyrimidin-4-one]
189 to 191	Cn1cc2c(=O)n(Cc3ccccc3-c3ccccc3)cnc2n1 [Compound 24, 5-(2-phenylbenzyl)-2-methyl-2,5-dihydropyrazolo[3,4-d]-pyrimidin-4-one]
199 to 200	Cc1cc(C)c(Cn2cnc3n[nH]cc3c2=O)c(C)c1 [Compound 9, 5-(2,4,6-trimethylbenzyl)-2,5-dihydropyrazolo[3,4-d]-pyrimidin-4-one]
167 to 169	Cc1ccc(Cn2cnc3nn(Cc4ccccc4)cc3c2=O)cc1 [Compound 55, 5-(4-methylbenzyl)-2-benzyl-2,5-dihydropyrazolo[3,4-d]-pyrimidin-4-one]
216 to 217	Cn1cc2c(=O)n(Cc3ccc(F)cc3)cnc2n1 [Compound 31, 5-(4-fluorobenzyl)-2-methyl-2,5-dihydropyrazolo[3,4-d]-pyrimidin-4-one]
200 to 201	O=c1c2c[nH]nc2ncn1Cc1cccnc1 [Compound 11, 5-(3-pyridinylmethyl)-2,5-dihydropyrazolo[3,4-d]-pyrimidin-4-one]
222 to 224	Cc1nc2n[nH]cc2c(=O)n1Cc1ccccc1Cl [Compound 61, 5-(2-chlorobenzyl)-6-methyl-2,5-dihydropyrazolo[3,4-d]-pyrimidin-4-one]
179 to 181	CCCn1cc2c(=O)n(Cc3ccccn3)cnc2n1 [Compound 42, 5-(2-pyridinylmethyl)-2-propyl-2,5-dihydropyrazolo[3,4-d]-pyrimidin-4-one]
190 to 191	CCn1cc2c(=O)n(Cc3ccccn3)cnc2n1 [Compound 38, 5-(2-pyridinylmethyl)-2-ethyl-2,5-dihydropyrazolo[3,4-d]-pyrimidin-4-one]
192 to 195	Cn1cc2c(=O)n(Cc3ccncc3)cnc2n1 [Compound 34, 5-(4-pyridinylmethyl)-2-methyl-2,5-dihydropyrazolo[3,4-d]-pyrimidin-4-one]
216 to 218	Cn1cc2c(=O)n(Cc3c(F)cccc3Cl)cnc2n1 [Compound 23, 5-(2-chloro-6-fluorobenzyl)-2-methyl-2,5-dihydropyrazolo[3,4-d]pyrimidin-4-one]
192 to 193	Cc1nc2nn(C)cc2c(=O)n1Cc1ccccc1C(F)(F)F [Compound 63, 5-(2-trifluoromethylbenzyl)-2,6-dimethyl-2,5-dihydropyrazolo[3,4-d]pyrimidin-4-one]
218 to 219	Cn1cc2c(=O)n(Cc3ccc(Cl)cc3Cl)cnc2n1 [Compound 28, 5-(2,4-dichlorobenzyl)-2-methyl-2,5-dihydropyrazolo[3,4-d]pyrimidin-4-one]
220 to 222	Cn1cc2c(=O)n(Cc3ccccc3[N+](=O)[O-])cnc2n1 [Compound 26, 5-(2-nitrobenzyl)-2-methyl-2,5-dihydropyrazolo[3,4-d]-pyrimidin-4-one]
182 to 183	Cc1ccc(Cn2cnc3nn(-c4ccccc4)cc3c2=O)cc1 [Compound 51, 5-(4-methylbenzyl)-2-phenyl-2,5-dihydropyrazolo[3,4-d]-pyrimidin-4-one]
167 to 168	CCCn1cc2c(=O)n(Cc3c(F)cccc3F)cnc2n1 [Compound 41, 5-(2,6-difluorobenzyl)-2-propyl-2,5-dihydropyrazolo[3,4-d]pyrimidin-4-one]
200 to 202	Cn1cc2c(=O)n(Cc3c(Cl)cccc3Cl)cnc2n1 [Compound 25, 5-(2,6-dichlorobenzyl)-2-methyl-2,5-dihydro-pyrazolo[3,4-d]pyrimidin-4-one]
195 to 197	O=c1c2cn(-c3ccccc3)nc2ncn1Cc1c(F)cccc1Cl [Compound 50, 5-(2-chloro-6-fluorobenzyl)-2-phenyl-2,5-dihydropyrazolo[3,4-d]pyrimidin-4-one]
